In patent US12115373B2, “Methods for reducing the risk of strokes by pharmacotherapy to reduce the number and duration of atrial fibrillations” (Xyra, LLC, priority 2022, dated 2024):

Columns and labels:
[1] = system: patients with paroxysmal or persistent AFib; test: Clinical trial evaluation of budiodarone, 6 patients, pacemaker monitoring, two-week dose periods (Example 2); assay type: in vivo; parameters: Duration of episodes, Mean / Duration of sinus rhythm, Mean: unit not given here; conditions: for # of AFib episodes, Mean / Duration of episodes, Mean / Duration of sinus rhythm, Mean / Longest AFib Episode - hrs: two-week period, 6 patients
Experimental: This example is a clinical trial evaluation of budiodarone in treating 6 patients with paroxysmal or persistent AFib who previously evidenced episodes of long duration AFib (greater than 24 hours). In this example, the patients' heart rhythm was continuously monitored over a two-week period with a pacemaker, and were treated with different doses of budiodarone. The purpose of this example is to establish whether budiodarone reduces long duration AFib lasting more than 24 hours.

[2] = system: patients with either paroxysmal or persistent AFib; test: Clinical trial: episodes of AFib greater than 6 minutes (0.1 hour), pacemaker monitoring (Example 6); assay type: in vivo; conditions: for Episodes of AFib > 0.1 hrs: Duration, percent of Off Drug (baseline) / Episodes of AFib > 0.1 hrs: Number, percent of Off Drug (baseline): 2 weeks (baseline 4 weeks); for Episodes of AFib > 0.1 hrs: Number / Episodes of AFib > 0.1 hrs: Duration: all tested patients, 2 weeks; for Episodes of AFib > 0.1 hrs: Duration: cumulative; for Episodes of AFib > 0.1 hrs: Fraction of hours: hours in AFib / hours monitored
Experimental: In this example, the patients' heart rhythm was continuously monitored over a twelve-week period with a pacemaker. The patients were treated with different doses (2 weeks each) of budiodarone. In addition, during this trial, the patients were under continuous monitoring and clinician supervision.
The “Number” indicates the number of AFib episodes greater than 6 minutes for all tested patients over the trial period (4 weeks for based line, 2 weeks experimental). The “Duration” in hours indicates the cumulative duration in hours over the trial period that the tested patients were measured in episodes of AFib greater than 6 minutes.
Table 8 provides a summary of the fraction of time and the number of hours per week that the patients were in episodes of AFib greater than 6 minutes in duration, on average. The percent time in AFib was reduced by 90% for doses of budiodarone at 600 mg bid and 800 mg bid.

[3] = system: patients with either paroxysmal or persistent AFib; test: Clinical trial: episodes of long duration AFib (>1 hr), pacemaker monitoring (Example 5); assay type: in vivo; conditions: 2 week period; for Episodes of AFib > 1 hrs: Duration / Episodes of AFib > 1 hrs: Number: 6 patients
Experimental: (§1) This example is a clinical trial evaluation of budiodarone in treating 6 patients with either paroxysmal or persistent AFib who previously evidenced episodes of long duration AFib (greater than 1 hour). In this example, the patients' heart rhythms were continuously monitored over a twelve-week period with a pacemaker (surgically invasive procedure) and were treated with different doses (2 weeks each) of budiodarone. In addition, during this trial, the patients were under continuous monitoring and constant clinician supervision.
The purpose of this example is to establish whether budiodarone reduces long duration AFib (duration >1 hr) in a clinical study setting using a pacemaker to evaluate the heart rhythm.
As above, “Number” indicates a number of long duration AFib episodes during the 2 week period, and “Duration” indicates a number of hours during the 2 week period sent in the long duration AFib episodes

[4] = in vivo; cited from earlier work
[5] = system: patients with either paroxysmal or persistent AFib; test: Clinical trial: episodes of longer duration AFib (>24 hrs), pacemaker monitoring (Example 3); assay type: in vivo; conditions: 2-week period; for Episodes of AFib > 24 hrs: Duration / Episodes of AFib > 24 hrs: Number: 6 patients
Experimental: as §1, with “24 hrs).” for “1 hour).”
The purpose of this example is to establish whether budiodarone treatment can reduce longer duration AFib (AFib episodes lasting more than 24 hours) in a clinical study setting and using a pacemaker to evaluate heart rhythm.
“Number” indicates the number of longer duration episodes of AFib (i.e., having a duration of greater than 24 hours). “Duration” indicates the amount of time during the 2-week period spent in the longer duration indicated in hours and a percentage relative to the baseline measurement. As per the above results, 200 mg b.i.d. was sufficient to treat all patients in the study by eliminating the number of episodes of AFib lasting over 24 hours. In this case, dose escalation was not required to improve patient efficacy as the 200 mg bid doses of budiodarone were sufficient to eliminate these long duration episodes of AFib.

[6] = Serum half-life of budiodarone; assay type: in vivo; conditions: human

CC[C@H](C)OC(=O)Cc1oc2ccccc2c1C(=O)c1cc(I)c(OCCN(CC)CC)c(I)c1 [budiodarone, (S)-sec-butyl2-(3-(4-(2-(diethylamino)ethoxy)-3,5-diiodobenzoyl)benzofuran-2-yl)acetate]
# of AFib episodes, Mean ([1]; 200 mg bid): 31 | Duration of episodes, Mean ([1]; 200 mg bid): 1.7 | Duration of sinus rhythm, Mean ([1]; 200 mg bid): 131 | Longest AFib Episode - hrs ([1]; 200 mg bid): 7 h | # of AFib episodes, Mean ([1]; 400 mg bid): 37 | Duration of episodes, Mean ([1]; 400 mg bid): 0.6 | Duration of sinus rhythm, Mean ([1]; 400 mg bid): 48 | Longest AFib Episode - hrs ([1]; 400 mg bid): 13 h | # of AFib episodes, Mean ([1]; 600 mg bid): 42 | Duration of episodes, Mean ([1]; 600 mg bid): 0.1 | Duration of sinus rhythm, Mean ([1]; 600 mg bid): 103 | Longest AFib Episode - hrs ([1]; 600 mg bid): 7 h | # of AFib episodes, Mean ([1]; 800 mg bid): 24 | Duration of episodes, Mean ([1]; 800 mg bid): 0.5 | Duration of sinus rhythm, Mean ([1]; 800 mg bid): 42 | Longest AFib Episode - hrs ([1]; 800 mg bid): 5 h | episodes of long duration AFib lasting more than 24 hours eliminated as compared to Baseline ([1]; all dose levels (200-800 mg bid)): over 70% | reduction in AFib burden (number of episodes over a 2-week period times the average duration) ([1]; vs baseline, dose levels 200-800 mg bid): more than 64% | Episodes of AFib > 0.1 hrs: Duration in hrs/week (average per patient) ([2]; 200 mg bid): 5.9 hrs/week | Episodes of AFib > 0.1 hrs: Fraction of hours (percent), percent time in AFib ([2]; 200 mg bid): (3.5%) | Episodes of AFib > 0.1 hrs: Duration, percent of Off Drug (baseline) ([2]; 200 mg bid): 11% | Episodes of AFib > 0.1 hrs: Number, percent of Off Drug (baseline) ([2]; 200 mg bid): 52 (52%) | Episodes of AFib > 0.1 hrs: Number ([2]; 200 mg bid): 52 (52%) | Episodes of AFib > 0.1 hrs: Duration ([2]; 200 mg bid): 71 h | Episodes of AFib > 0.1 hrs: Fraction of hours ([2]; 200 mg bid): 71/2016 | drop in percent time in AFib ([2]; 200 mg twice a day): 76.7% | Episodes of AFib > 0.1 hrs: Duration in hrs/week (average per patient) ([2]; 400 mg bid): 5 hrs/week | Episodes of AFib > 0.1 hrs: Fraction of hours (percent), percent time in AFib ([2]; 400 mg bid): (3.0%) | Episodes of AFib > 0.1 hrs: Duration, percent of Off Drug (baseline) ([2]; 400 mg bid): 10% | Episodes of AFib > 0.1 hrs: Number, percent of Off Drug (baseline) ([2]; 400 mg bid): 28 (28%) | Episodes of AFib > 0.1 hrs: Number ([2]; 400 mg bid): 28 (28%) | Episodes of AFib > 0.1 hrs: Duration ([2]; 400 mg bid): 61 h | Episodes of AFib > 0.1 hrs: Fraction of hours ([2]; 400 mg bid): 61/2016 | Episodes of AFib > 0.1 hrs: Duration in hrs/week (average per patient) ([2]; 600 mg bid): 2.5 hrs/week | Episodes of AFib > 0.1 hrs: Fraction of hours (percent), percent time in AFib ([2]; 600 mg bid): (1.5%) | reduction of percent time in AFib ([2]; 600 mg bid and 800 mg bid (Table 8)): 90% | reduction of the number of episodes of AFib longer than 6 minutes ([2]; 600 mg bid or 800 mg bid): more than 80% | Episodes of AFib > 0.1 hrs: Duration, percent of Off Drug (baseline) ([2]; 600 mg bid): 4.8% | Episodes of AFib > 0.1 hrs: Number, percent of Off Drug (baseline) ([2]; 600 mg bid): 16 (16%) | Episodes of AFib > 0.1 hrs: Number ([2]; 600 mg bid): 16 (16%) | Episodes of AFib > 0.1 hrs: Duration ([2]; 600 mg bid): 30 h | Episodes of AFib > 0.1 hrs: Fraction of hours ([2]; 600 mg bid): 30/2016 | drop in percent time in AFib ([2]; 600 mg twice a day): 90% | Episodes of AFib > 0.1 hrs: Duration in hrs/week (average per patient) ([2]; 800 mg bid): 1.3 hrs/week | Episodes of AFib > 0.1 hrs: Fraction of hours (percent), percent time in AFib ([2]; 800 mg bid): (0.8%) | Episodes of AFib > 0.1 hrs: Duration, percent of Off Drug (baseline) ([2]; 800 mg bid): 2.5% | Episodes of AFib > 0.1 hrs: Number, percent of Off Drug (baseline) ([2]; 800 mg bid): 15 (15%) | Episodes of AFib > 0.1 hrs: Number ([2]; 800 mg bid): 15 (15%) | Episodes of AFib > 0.1 hrs: Duration ([2]; 800 mg bid): 16 h | Episodes of AFib > 0.1 hrs: Fraction of hours ([2]; 800 mg bid): 16/2016 | drop in percent time in AFib ([2]; 800 mg twice a day): 94.8% | Episodes of AFib > 1 hrs: Duration, percent of Off Drug (baseline) ([3]; 200 mg bid): (10%) | Episodes of AFib > 1 hrs: Duration ([3]; 200 mg bid): 60 h | Episodes of AFib > 1 hrs: Number ([3]; 200 mg bid): 22 | Episodes of AFib > 1 hrs: Duration, percent of Off Drug (baseline) ([3]; 400 mg bid): (9.3%) | Episodes of AFib > 1 hrs: Duration ([3]; 400 mg bid): 56 h | Episodes of AFib > 1 hrs: Number ([3]; 400 mg bid): 12 | Episodes of AFib > 1 hrs: Duration, percent of Off Drug (baseline) ([3]; 600 mg bid): (4.3%) | Episodes of AFib > 1 hrs: Duration ([3]; 600 mg bid): 26 h | Episodes of AFib > 1 hrs: Number ([3]; 600 mg bid): 6 | Episodes of AFib > 1 hrs: Duration, percent of Off Drug (baseline) ([3]; 800 mg bid): (2.5%) | Episodes of AFib > 1 hrs: Duration ([3]; 800 mg bid): 15 h | Episodes of AFib > 1 hrs: Number ([3]; 800 mg bid): 6 | increase in the QT interval [4]: without a significant increase in the QT interval | Episodes of AFib > 24 hrs: Duration, percentage relative to the baseline ([5]; 200 mg bid): (0%) | Episodes of AFib > 24 hrs: Duration ([5]; 200 mg bid): 0 h | Episodes of AFib > 24 hrs: Number ([5]; 200 mg bid): 0 | Episodes of AFib > 24 hrs: Duration, percentage relative to the baseline ([5]; 400 mg bid): (0%) | Episodes of AFib > 24 hrs: Duration ([5]; 400 mg bid): 0 h | Episodes of AFib > 24 hrs: Number ([5]; 400 mg bid): 0 | Episodes of AFib > 24 hrs: Duration, percentage relative to the baseline ([5]; 600 mg bid): (0%) | Episodes of AFib > 24 hrs: Duration ([5]; 600 mg bid): 0 h | Episodes of AFib > 24 hrs: Number ([5]; 600 mg bid): 0 | Episodes of AFib > 24 hrs: Duration, percentage relative to the baseline ([5]; 800 mg bid): (0%) | Episodes of AFib > 24 hrs: Duration ([5]; 800 mg bid): 0 h | Episodes of AFib > 24 hrs: Number ([5]; 800 mg bid): 0 | half-life ([6]; after administration): 6 to 7 h | time to reach steady state ([6]; read-out: steady state (about 5x the serum half-life)): 1800 to 2100 min
